From ChEMBL document CHEMBL5678797, “AZD7762, a novel checkpoint kinase inhibitor, drives checkpoint abrogation and potentiates DNA-targeted therapies” (Mol Cancer Ther, 2008)
One block for each compound: values may come before it.

How the values were obtained:
HT-29 [1] = experiment: Inhibition of camptothecin induced DNA damage in human HT-29 cells assessed as G2 checkpoint abrogation measured after 20 hrs presence of nocodazole by pHH3 staining based analysis
HT-29 [2] = experiment: Induction of cell cycle arrest in human HT-29 cells incubated for 20 hrs by phH3 staining based analysis
SW-620 [3] = experiment: Growth inhibition of human SW620 cells expressing p53 mutant assessed as reduction in cell growth incubated for 48 hrs in presence of gemcitabine; assay type: functional
MDA-MB-231 [4] = experiment: Growth inhibition of human MDA-MB-231 cells expressing p53 mutant assessed as reduction in cell growth incubated for 48 hrs in presence of topotecan; assay type: functional
HCT-116 [5] = experiment: Induction of G2 check point abrogation in human HCT-116 cells assessed as accumulation of cells at G1 phase incubated for 30 hrs in presence of topotecan by fluorescence-activated cell sorting analysis (reference value: 68.52%); assay type: functional
HCT-116 [6] = experiment: Induction of G2 check point abrogation in human HCT-116 cells assessed as accumulation of cells at G2 phase incubated for 30 hrs in presence of topotecan by fluorescence-activated cell sorting analysis (reference value: 9.45%); assay type: functional
NCI-H460 [7] = experiment: Antitumor activity against human NCI-H460 cells expressing DNp53 mutant xenografted in NCr athymic mouse model assessed as reduction in tumor volume at 25 mg/kg measured after 10 to 45 days in presence of gemcitabine by caliper method relative to control; assay type: functional; design: scale not given: the % may be the effect or the level left; settings: time 10-45 day
NCI-H460 [8] = experiment: Antitumor activity against human NCI-H460 cells expressing DNp53 mutant xenografted in NCr athymic mouse model assessed as log cell kill 25 mg/kg measured after 10 to 45 days in presence of gemcitabine; assay type: functional; settings: time 10-45 day
NCI-H460 [9] = experiment: Antitumor activity against human NCI-H460 cells expressing DNp53 mutant xenografted in NCr athymic mouse model assessed as T/C ratio at 25 mg/kg measured after 10 to 45 days in presence of gemcitabine by caliper method relative to control; assay type: functional; settings: time 10-45 day
[10] = Toxicity in NCr athymic mouse assessed as body weight loss at 25 mg/kg measured after 10 to 45 days in presence of gemcitabine relative to control; assay type: organism-based; settings: in vivo, time 10-45 day
SW-620 [11] = experiment: Antitumor activity against human SW620 cells xenografted in NCr athymic mouse model assessed as reduction in tumor volume at 12.5 mg/kg measured from 30 to 55 days in presence of gemcitabine by caliper method relative to control; assay type: functional; design: scale not given: the % may be the effect or the level left; settings: time 30-55 day
SW-620 [12] = experiment: Antitumor activity against human SW620 cells xenografted in NCr athymic mouse model assessed as reduction in tumor volume at 25 mg/kg measured from 30 to 55 days in presence of gemcitabine by caliper method relative to control; assay type: functional; design: scale not given: the % may be the effect or the level left; settings: time 30-55 day
[13] = Toxicity in NCr athymic mouse xenografted with human SW620 cells assessed as effect on body weight loss at 12.5 to 25 mg/kg measured after 30 to 55 days in presence of gemcitabine; assay type: organism-based, SW-620; settings: in vivo, dose lower 12.5 mg/kg, time lower 30 day, dose upper 25 mg/kg, time upper 55 day
NCI-H460 [14] = experiment: Antitumor activity against human NCI-H460 cells expressing DNp53 mutant xenografted in rat model assessed as T/C ratio at 10 mg/kg measured after 10 to 30 days post tumor implantation in presence of gemcitabine by caliper method relative to control; assay type: functional; settings: time 10-30 day
NCI-H460 [15] = experiment: Antitumor activity against human NCI-H460 cells expressing DNp53 mutant xenografted in rat model assessed as T/C ratio at 20 mg/kg measured after 10 to 30 days post tumor implantation in presence of gemcitabine by caliper method relative to control; assay type: functional; settings: time 10-30 day
[16] = Toxicity in rat at low dose measured after 10 to 30 days post tumor implantation; settings: in vivo, time 10-30 day
[17] = Toxicity in rat assessed as effect on body weight loss at high dose measured after 10 to 30 days post tumor implantation; settings: in vivo, time 10-30 day
[18] = Toxicity in rnu rat assessed as appearance of skin rashes at 10 to 20 mg/kg, iv measured after 10 to 30 days post tumor implantation; assay type: organism-based; settings: in vivo, dose lower 10 mg/kg, time lower 10 day, dose upper 20 mg/kg, time upper 30 day
SW-620 [19] = experiment: Antitumor activity against human SW620 cells xenografted in athymic mouse model assessed as T/C ratio at 25 mg/kg measured after 17 to 94 days post tumor implantation by caliper method relative to control; assay type: functional; settings: time 17-94 day
SW-620 [20] = experiment: Antitumor activity against human SW620 cells xenografted in athymic mouse model assessed as T/C ratio at 25 mg/kg measured after 17 to 94 days post tumor implantation in presence of 25 mg/kg of irinotecan by caliper method relative to control; assay type: functional; settings: time 17-94 day
SW-620 [21] = experiment: Antitumor activity against human SW620 cells xenografted in athymic mouse model assessed as T/C ratio at 25 mg/kg measured after 17 to 94 days post tumor implantation in presence of 50 mg/kg of irinotecan by caliper method relative to control; assay type: functional; settings: time 17-94 day
SW-620 [22] = experiment: Antitumor activity against human SW620 cells xenografted in athymic mouse model assessed as inhibition of tumor volume at 25 mg/kg measured after 17 to 94 days post tumor implantation by caliper method relative to control; assay type: functional; design: scale not given: the % may be the effect or the level left; settings: time 17-94 day
SW-620 [23] = experiment: Antitumor activity against human SW620 cells xenografted in athymic mouse model assessed as inhibition of tumor volume at 25 mg/kg measured after 17 to 94 days post tumor implantation in presence of 25 mg/kg of irinotecan by caliper method relative to control; assay type: functional; design: scale not given: the % may be the effect or the level left; settings: time 17-94 day
SW-620 [24] = experiment: Antitumor activity against human SW620 cells xenografted in athymic mouse model assessed as inhibition of tumor volume at 25 mg/kg measured after 17 to 94 days post tumor implantation in presence of 50 mg/kg of irinotecan by caliper method relative to control; assay type: functional; design: scale not given: the % may be the effect or the level left; settings: time 17-94 day
[25] = Toxicity in athymic mouse assessed as maximum weight loss at 25 mg/kg measured after 17 to 94 days post tumor implantation; assay type: organism-based; settings: in vivo, time 17-94 day
[26] = Toxicity in athymic mouse assessed as maximum weight loss at 25 mg/kg measured after 17 to 94 days post tumor implantation in presence of 25 mg/kg of irinotecan; assay type: organism-based; settings: in vivo, time 17-94 day
[27] = Toxicity in athymic mouse assessed as maximum weight loss at 25 mg/kg measured after 17 to 94 days post tumor implantation in presence of 50 mg/kg of irinotecan; assay type: organism-based; settings: in vivo, time 17-94 day
[28] = Toxicity in rnu rat assessed as appearance of skin rashes at 10 mg/kg measured after 10 to 30 days; assay type: organism-based; settings: in vivo, time 10-30 day
[29] = Toxicity in rnu rat assessed as appearance of hemorrhage at 10 mg/kg measured after 10 to 30 days; assay type: organism-based; settings: in vivo, time 10-30 day
SW-620 [30] = experiment: Growth inhibition of human SW620 cells expressing p53 mutant assessed as reduction in cell growth incubated for 48 hrs; assay type: functional
SW-620 [31] = experiment: Antitumor activity against human SW620 cells xenografted in athymic mouse model assessed as T/C ratio at 50 mg/kg measured after 17 to 94 days post tumor implantation by caliper method relative to control; assay type: functional; settings: time 17-94 day
[32] = Toxicity in athymic mouse assessed as maximum weight loss at 50 mg/kg measured after 17 to 94 days post tumor implantation; assay type: organism-based; settings: in vivo, time 17-94 day
HCT-116 [33] = experiment: Induction of G2 check point abrogation in human HCT-116 cells assessed as accumulation of cells at G1 phase incubated for 30 hrs by fluorescence-activated cell sorting analysis (reference value: 68.52%); assay type: functional
HCT-116 [34] = experiment: Induction of G2 check point abrogation in human HCT-116 cells assessed as accumulation of cells at G2 phase incubated for 30 hrs by fluorescence-activated cell sorting analysis (reference value: 9.45%); assay type: functional
MDA-MB-231 [35] = experiment: cells; settings: Homo sapiens, MDA-MB-231, 48 h

Structure (SMILES): NC(=O)Nc1cc(-c2cccc(F)c2)sc1C(=O)N[C@H]1CCCNC1 [AZD-7762]
- EC50 (HT-29 [1]): 0.01 µM
- EC50 (HT-29 [2]): 0.62 µM
- GI50 (SW-620 [3]): 0.00108 µM
- TGI (SW-620 [3]; read-out: GI100): 0.0015 µM
- GI50 (MDA-MB-231 [4]): 0.15 µM
- Activity (HCT-116 [5]): 52.86%
- Activity (HCT-116 [6]): 33.02%
- Activity (NCI-H460 [7]): 76%
- LCK (NCI-H460 [8]): 0.9
- T/C (NCI-H460 [9]): 26%
- Activity [10]: 7%
- Activity (SW-620 [11]): 73%
- Activity (SW-620 [12]): 77%
- Activity [13]: Non-Toxic
- T/C (NCI-H460 [14]): 48%
- T/C (NCI-H460 [15]): 32%
- Activity [16]: Non-Toxic
- Activity [17]: Toxic
- Activity [18]: Non-Toxic
- T/C (SW-620 [19]): 56%
- T/C (SW-620 [20]): -66%
- T/C (SW-620 [21]): -67%
- Activity (SW-620 [22]): 38%
- Activity (SW-620 [23]): 116%
- Activity (SW-620 [24]): 116%
- Activity [25]: 0%
- Activity [26]: 0%
- Activity [27]: 0%

- GI50 (SW-620 [30]): 0.0241 µM
Structure (SMILES): Nc1ccn([C@@H]2O[C@H](CO)[C@@H](O)C2(F)F)c(=O)n1 [GEMCITABINE]
- Activity [28]: Toxic
- Activity [29]: Toxic
- TGI (SW-620 [30]; read-out: GI100): > 0.1 µM

Structure (SMILES): CCc1c2c(nc3ccc(OC(=O)N4CCC(N5CCCCC5)CC4)cc13)-c1cc3c(c(=O)n1C2)COC(=O)[C@]3(O)CC [IRINOTECAN]
- T/C (SW-620 [19]): 9%
- T/C (SW-620 [31]): 1%
- Activity [25]: 0%
- Activity [32]: -1%

- GI50 (MDA-MB-231 [35]): 2.25 µM
Structure (SMILES): CC[C@@]1(O)C(=O)OCc2c1cc1n(c2=O)Cc2cc3c(CN(C)C)c(O)ccc3nc2-1 [TOPOTECAN]
- Activity (HCT-116 [33]): 17.06%
- Activity (HCT-116 [34]): 75.85%
